In US7811609B2, “Use of metal compounds to treat gastrointestinal infections” (priority 2000, dated 2010):
Values joined by “and” are separate entries in the source; they are usually repeats but may differ in a detail not shown here. Equal entries are not always repeated. Where two headings read alike, the source gives them in different places.

How the values were obtained:
[1] = system: Helicobacter pylori; details: Co 0 mg/l
Procedure: (§1) Solutions of metal salts were prepared by dilution of the metal salt, optionally together with the ligand, in ultra-high-purity water. The pH values were adjusted to 7 with concentrated sodium hydroxide. The solutions were γ irradiated for 20 to 30 minutes for sterilisation, and then diluted ten fold in the bacterial growth medium to be used.
(§2) A gradient of concentration was obtained by two fold serial dilutions of the medium. The concentrations of metals were analysed by inductively coupled plasma spectrometry. Each dilution was inoculated with the different bacteria to be tested, by multi-point inoculating on the agar media, or suspending in the broth media.
(§3) Media were incubated for Helicobacter pylori in a microaerobic atmosphere (gas jar containing a CampyGen® pack, 5% O2-10% CO2-85% N2 by volume) with constant shaking (orbital shaker, 140 rpm) at 37° C. for five days.
(§4) The presence or absence of bacterial growth was reported within the concentration gradient and the minimum concentration of complex in the medium that inhibits totally the bacterial growth (MIC) was determined. The growth on an agar plate was detected by the presence of colonies, and by turbidity in the broth media. […] Helicobacter pylori growth was also confirmed by biochemical test on the catalase, urease and oxidase activity.

[2] = system: Helicobacter pylori; assay: microbe, parasite or virus in culture; details: read-out: MIC of amoxycillin (no cobalt)
Procedure: as §1, §2, §3, §4

[3] = system: H. pylori; details: cited from earlier work

## CC1(C)S[C@@H]2[C@H](NC(=O)[C@H](N)c3ccc(O)cc3)C(=O)N2[C@H]1C(=O)O [amoxycillin, reference compound]
[1]; Ax 0.002 mg/l
  growth in the medium: +
[1]; Ax 0.004 mg/l
  growth in the medium: +
[1]; Ax 0.008 mg/l
  growth in the medium: +
[1]; Ax 0.015 mg/l
  growth in the medium: +
[1]; Ax 0.03 mg/l
  growth in the medium: +
[1]; Ax 0.06 mg/l
  growth in the medium: −
[2]
  MIC: 0.06 µg/mL
[3]; H. pylori strains lacking one penicillin-binding protein
  MIC, strains that repeatedly showed higher MIC: 0.25 µg/mL and 0.5 µg/mL
[3]; H. pylori, usual strains
  MIC, usual: ≤ 0.03 µg/mL
